Among the test systems are IGROV1 ovarian; SW-620 colon; HCT-116 colon; COLO 205 colon; PC-3 prostate; RPMI-8226 leukemia; SK-MEL-2 melanoma; SK-MEL-5 melanoma; DU-145 prostate; NCI-H226 lung.
What all share (assay): growth of human tumour cells (NCI), 48 h

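Cells were grown in 96-well plates and exposed to each compound for 48 hours at five concentrations; endpoints were interpolated linearly between bracketing concentrations, or set to the highest concentration if not reached. At the GI50, growth is halved. TGI marks complete inhibition of growth.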

`Cc1cccc(Oc2nccc(-c3c(-c4ccc(F)cc4)ncn3C3CCNCC3)n2)c1C`: the GI50 in the assay with IGROV1 ovarian is 6.76 µM; with SW-620 colon, 7.81 µM; with HCT-116 colon it was 7.26 µM; in the assay on COLO 205 colon, 4.21 µM; in the assay on PC-3 prostate it was 9.94 µM; in the assay on RPMI-8226 leukemia it was 7.52 µM. In addition, the GI50 is 9.09 µM in the assay with SK-MEL-2 melanoma, 3.61 µM in the assay with SK-MEL-5 melanoma and > 11.4 µM in the assay with DU-145 prostate. For the same compound, the TGI with IGROV1 ovarian is > 16.7 µM; with SW-620 colon it was > 14.3 µM; in the assay on HCT-116 colon it was > 17.8 µM; in the assay with COLO 205 colon it was 8.03 µM; in the assay on PC-3 prostate, > 23.2 µM; in the assay with RPMI-8226 leukemia, > 18.6 µM. In addition, the values for the TGI with SK-MEL-2 melanoma, with SK-MEL-5 melanoma and in the assay with DU-145 prostate were > 15.9 µM, 6.92 µM and > 16.3 µM, respectively.

As to `OCCCN=NNc1ccc(-c2nc3ccccc3[nH]2)cc1`, the GI50 in the assay on IGROV1 ovarian is 5.26 µM; in the assay on SW-620 colon, 3.04 µM; in the assay with COLO 205 colon, 12.3 µM; in the assay on PC-3 prostate, 24.1 µM; in the assay on RPMI-8226 leukemia, 34.2 µM; in the assay on SK-MEL-2 melanoma, 14.5 µM. Further, the GI50 with SK-MEL-5 melanoma was 15.6 µM; in the assay on NCI-H226 lung, 26.2 µM; in the assay on DU-145 prostate, 4.12 µM. Also, the TGI was 45.8 µM in the assay on IGROV1 ovarian; > 100 µM in the assay with SW-620 colon; 52.9 µM with COLO 205 colon; 77.5 µM with PC-3 prostate; > 100 µM in the assay with RPMI-8226 leukemia; 48.1 µM in the assay on SK-MEL-2 melanoma. The values for the TGI with SK-MEL-5 melanoma, with NCI-H226 lung and in the assay on DU-145 prostate were 88.6 µM, 58.9 µM and > 100 µM, respectively.

On to `CSc1cnn(CCC#N)c(=O)n1`, for which the TGI in the assay with IGROV1 ovarian, in the assay with SW-620 colon, with HCT-116 colon, in the assay on COLO 205 colon, with PC-3 prostate and with RPMI-8226 leukemia was > 100 µM throughout. Further, the TGI with SK-MEL-5 melanoma, with NCI-H226 lung and in the assay on DU-145 prostate was > 100 µM throughout.

Consider `COc1ccc(-c2ccc(/C=N/n3c(COc4ccccc4Cl)nn(CN4CCN(C)CC4)c3=S)o2)c([N+](=O)[O-])c1`, for which the GI50 in the assay on HCT-116 colon is 16.1 µM; with COLO 205 colon, 24.4 µM; in the assay with PC-3 prostate it was 15.3 µM; in the assay on SK-MEL-2 melanoma, 31.6 µM; in the assay on NCI-H226 lung it was 15.6 µM. Moreover, the TGI came to 29.8 µM with HCT-116 colon; 60.3 µM in the assay with COLO 205 colon; 58.2 µM with PC-3 prostate; 83.3 µM in the assay on SK-MEL-2 melanoma; 43.5 µM in the assay on NCI-H226 lung.

`COc1cc2c(cc1OCCOS(C)(=O)=O)N=C[C@@H]1CCCN1C2=O`: the TGI in the assay with IGROV1 ovarian was 99.1 µM; in the assay on SW-620 colon, 38.4 µM; with HCT-116 colon, 36.5 µM; with COLO 205 colon, > 100 µM; in the assay with RPMI-8226 leukemia, 48.8 µM; in the assay on SK-MEL-2 melanoma it was > 100 µM. Further, the TGI is 42.2 µM with SK-MEL-5 melanoma, 33.5 µM in the assay on NCI-H226 lung and > 100 µM with DU-145 prostate. Also, the GI50 is 14.6 µM with SW-620 colon; 18.5 µM with HCT-116 colon; 12.2 µM in the assay on RPMI-8226 leukemia; 16.9 µM in the assay on SK-MEL-5 melanoma; 15.4 µM in the assay with NCI-H226 lung.

As to `Cc1ccc(C2NC(=S)NC3=C2CCOc2c3ccc3ccccc23)cc1` (stereo not given), the GI50 is > 100 µM in the assay on HCT-116 colon; 9.64 µM with COLO 205 colon; 22.2 µM in the assay with PC-3 prostate; > 100 µM with SK-MEL-2 melanoma; > 100 µM with NCI-H226 lung. Besides, the TGI with HCT-116 colon, with COLO 205 colon, in the assay on PC-3 prostate, with SK-MEL-2 melanoma and in the assay on NCI-H226 lung was > 100 µM throughout.

On to `COc1ccc(/C(=N/NC(=O)NN)C(c2ccc(OC)cc2)C2(O)CNc3c(Cl)cc(Cl)cc32)cc1` (stereo not given), for which the TGI in the assay on IGROV1 ovarian, in the assay with SW-620 colon, with HCT-116 colon, in the assay with COLO 205 colon, in the assay on RPMI-8226 leukemia and in the assay on SK-MEL-2 melanoma was > 100 µM throughout. Moreover, the TGI with SK-MEL-5 melanoma and in the assay on NCI-H226 lung was > 100 µM each time.

Consider `CCCCCCCC/C=C/CCCCCCCCC1=NCCN1CCO`, for which the GI50 with IGROV1 ovarian is 2.58 µM; with SW-620 colon it was 1.71 µM; with COLO 205 colon it was 3.76 µM; with PC-3 prostate it was 2.61 µM; with SK-MEL-2 melanoma it was 11.9 µM; in the assay on SK-MEL-5 melanoma it was 5.84 µM. The GI50 in the assay with NCI-H226 lung was 9.91 µM; with DU-145 prostate, 7.28 µM. The TGI in the assay on IGROV1 ovarian stood at 6.19 µM; in the assay with SW-620 colon, 3.24 µM; with COLO 205 colon it was 13.9 µM; in the assay with PC-3 prostate, 9.14 µM; in the assay with SK-MEL-2 melanoma, 25.1 µM; in the assay with SK-MEL-5 melanoma, 19.9 µM. The TGI with NCI-H226 lung is 33.7 µM; in the assay on DU-145 prostate it was 19.6 µM.

As to `CCCN(CCCC(NC(C)=O)C(=O)NCc1ccccc1)C(=O)NC` (stereo not given), the TGI with IGROV1 ovarian, in the assay with SW-620 colon, in the assay with HCT-116 colon, in the assay with COLO 205 colon, in the assay on RPMI-8226 leukemia and with SK-MEL-2 melanoma was > 100 µM throughout. In addition, the TGI in the assay on SK-MEL-5 melanoma and with NCI-H226 lung was > 100 µM throughout.

For `CN(C)c1ccc(C(=C2C=CC(=[N+](C)C)C=C2)c2ccc(N(C)C)cc2)cc1` (tested in a mixture with another compound), the GI50 was 0.161 µM in the assay on IGROV1 ovarian; 0.0476 µM with SW-620 colon; 0.039 µM in the assay with HCT-116 colon; 0.0232 µM in the assay with COLO 205 colon; 0.0368 µM with PC-3 prostate; 0.04 µM in the assay on RPMI-8226 leukemia. Further, the GI50 in the assay on SK-MEL-5 melanoma is 0.133 µM; in the assay with DU-145 prostate, 0.0543 µM. The TGI in the assay with IGROV1 ovarian came to 1.78 µM; in the assay on SW-620 colon it was 1.35 µM; with HCT-116 colon it was 1.02 µM; in the assay with COLO 205 colon, 0.0519 µM; in the assay with PC-3 prostate it was 1.6 µM; with SK-MEL-2 melanoma it was 0.545 µM. Further, the TGI in the assay on SK-MEL-5 melanoma stood at 0.289 µM; in the assay on DU-145 prostate, 1.28 µM.

As for `Cc1cc2c(=O)n(-c3ccc(F)cc3)c(C)nc2c(C(=O)O)c1C`, the TGI with IGROV1 ovarian, in the assay on SW-620 colon, with HCT-116 colon, in the assay on COLO 205 colon, with RPMI-8226 leukemia and with SK-MEL-2 melanoma was > 100 µM in each case. In addition, the TGI with SK-MEL-5 melanoma and with NCI-H226 lung was > 100 µM each time.

Source of the values: PubChem BioAssay (NCI).
